We go through one compound from article PMC11206988, “Study on the Effect of Pharmaceutical Excipient PEG400 on the Pharmacokinetics of Baicalin in Cells Based on MRP2, MRP3, and BCRP Efflux Transporters” (Pharmaceutics, 2024).

SMILES strings stand for the structures. Where two headings read alike, the source gives them in different places.

What all share (format): in vitro ADME
For one data set, the target named is T1, MRP2 (Homo sapiens, UniProt Q92887).
T1 construct: expressed in transfected cells; host or cells: MDCK II
T1 sequence (Q92887 whole entry): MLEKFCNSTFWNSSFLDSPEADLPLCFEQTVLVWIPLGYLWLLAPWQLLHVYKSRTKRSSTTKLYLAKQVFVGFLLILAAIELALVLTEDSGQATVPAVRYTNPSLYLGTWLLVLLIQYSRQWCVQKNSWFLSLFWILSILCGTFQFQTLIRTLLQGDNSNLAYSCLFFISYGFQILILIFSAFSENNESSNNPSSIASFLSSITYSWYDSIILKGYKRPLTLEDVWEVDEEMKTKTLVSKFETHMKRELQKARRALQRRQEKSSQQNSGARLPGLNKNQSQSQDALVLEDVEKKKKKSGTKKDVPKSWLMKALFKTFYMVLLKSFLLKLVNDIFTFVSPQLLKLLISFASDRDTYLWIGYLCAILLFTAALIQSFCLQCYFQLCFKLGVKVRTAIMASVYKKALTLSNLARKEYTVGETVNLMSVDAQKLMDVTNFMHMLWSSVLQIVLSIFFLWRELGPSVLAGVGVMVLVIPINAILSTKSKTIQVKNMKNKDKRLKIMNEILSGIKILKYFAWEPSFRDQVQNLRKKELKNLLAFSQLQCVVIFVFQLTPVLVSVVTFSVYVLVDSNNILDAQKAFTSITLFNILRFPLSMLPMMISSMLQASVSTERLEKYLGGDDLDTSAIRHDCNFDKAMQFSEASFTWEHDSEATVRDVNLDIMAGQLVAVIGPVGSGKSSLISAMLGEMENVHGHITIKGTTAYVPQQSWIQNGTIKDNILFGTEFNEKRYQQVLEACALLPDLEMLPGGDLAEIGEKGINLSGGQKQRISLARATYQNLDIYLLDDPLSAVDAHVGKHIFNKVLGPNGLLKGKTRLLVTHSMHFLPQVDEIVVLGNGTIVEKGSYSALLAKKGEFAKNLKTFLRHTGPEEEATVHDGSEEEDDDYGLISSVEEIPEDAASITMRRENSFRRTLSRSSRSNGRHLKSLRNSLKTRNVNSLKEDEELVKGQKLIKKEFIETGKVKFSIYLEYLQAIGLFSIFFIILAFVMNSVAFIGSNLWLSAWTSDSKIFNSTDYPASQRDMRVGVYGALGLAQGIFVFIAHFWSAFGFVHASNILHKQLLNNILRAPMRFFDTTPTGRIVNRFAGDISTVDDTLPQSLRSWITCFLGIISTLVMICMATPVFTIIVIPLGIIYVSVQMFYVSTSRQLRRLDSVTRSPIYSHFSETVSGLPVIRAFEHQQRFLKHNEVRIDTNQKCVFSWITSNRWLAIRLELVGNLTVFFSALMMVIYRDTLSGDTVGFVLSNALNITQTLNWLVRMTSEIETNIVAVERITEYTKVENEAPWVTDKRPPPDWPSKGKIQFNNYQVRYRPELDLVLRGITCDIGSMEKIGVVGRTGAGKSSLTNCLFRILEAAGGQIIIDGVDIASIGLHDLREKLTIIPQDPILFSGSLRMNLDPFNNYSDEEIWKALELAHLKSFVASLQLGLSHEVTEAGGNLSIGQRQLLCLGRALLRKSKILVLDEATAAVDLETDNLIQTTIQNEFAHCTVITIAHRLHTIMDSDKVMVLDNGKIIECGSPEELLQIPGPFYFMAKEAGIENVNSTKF
Put plainly: Transport of baicalin across MDCK II-MRP2 cell monolayer (transwell). The method, then: (§1) The cells were inoculated at a density of 0.5 mL (1 × 10^5) in the upper layer of the transwell plate (AP side), and the culture was changed daily after the lower layer was added with 1.5 mL of complete medium without cells every other day. After 5–7 days of growth, the supernatant was aspirated and discarded, and the cell monolayer was rinsed twice with 37 °C Hank’s Balanced Salt Solution (HBSS, pH 7.4). The electrical resistance of the cell monolayer compartments was measured with a resistivity meter (TEER), and the integrity of the cell monolayer was monitored using TEER. The differentiation of MDCK II-WT, MDCK II-MRP2, MDCK II-MRP3, and MDCK II-BCRP cells was examined by determining sodium fluorescein permeability prior to transit experiments. This was done in order to determine the integrity of the cell monolayer. When the TEER value of the cell monolayer was greater than 150 Ω·cm^2 and the MDCK II-MRP2, MDCK II-MRP3, and MDCK II-BCRP sodium fluorescein permeability was less than 0.5 × 10^−6 cm/s or the MDCK II-WT sodium fluorescein permeability was less than 1 × 10^−6 cm/s, the cell monolayer was considered intact and suitable for transit experiments. TEER = (TEERcell monolayer − TEERblank) × Aarea(1) wherein TEERcell monolayer is the resistance of the cell monolayer read directly from the Millicell ERS-2 resistivity meter, and TEERblank is the resistance read by inserting a blank HBSS (no cells) only. Aarea is the surface area of the filter membrane, 1.12 cm^2.
(§2) In this experiment, a 100 μM baicalin solution (dissolved in HBSS) containing different concentrations of PEG400 (0.25%, 0.5%, and 1%) was employed as the test solution, while a solution without PEG400 was used as the blank test solution, which was added to AP or BL chambers, respectively. In the top to basolateral (AP-BL) transport experiment, the 0.5 mL sample added to the apical side (AP) was utilized as the supply room, and the HBSS preheated to 1.5 mL 37 °C was added to the basolateral (BL) as the receiving chamber. Conversely, in the basal low lateral to top (BL-AP) transport experiment, the 1.5 mL sample (dissolved in HBSS) was added to the BL side as the supply room, and the 0.5 mL preheated HBSS was added as a receiving room on the AP side. Once the aforementioned steps had been completed, the transwell was placed on a 37 °C thermostatic oscillator at 60 r/min, and 100 μL was withdrawn from the receiving cell or 10 μL from the supply chamber at 30, 60, 90, and 120 min, depending on the experiment, and replenished with an equal volume of blank 37 °C preheated HBSS. The samples were utilized to precipitate the proteins with 100 μL of methanol containing the internal standard for 10 min. After centrifugation at 16,000× g for 15 min at 4 °C, the supernatant was collected in a volume of 70 μL. The contents were determined by UPLC-MS/MS, and apparent permeability coefficients (PAPP) and efflux ratios (ER) were calculated.
(§3) The formulas for calculating Papp and ER of monolayer and monolayer are as follows:(2) Papp=dQ/dt/AC0 wherein dQ/dt (ng/mL·s) is the transit rate (ng/mL·s); A is the membrane area (1.12 cm^2); and C0 (ng/mL) is the initial concentration of the sample in the supply chamber. ER = PappBL-AP/PappAP-BL (3) wherein PappBL-AP is the apparent permeability coefficient when the BL is added to the sample, and PappAP-BL is the apparent permeability coefficient when the sample is added at the top side (AP).

Another data set has as its target T2, MRP3 (Homo sapiens, UniProt O15438).
T2 construct: host or cells: MDCK II
Put plainly: Transport of baicalin across MDCK II-MRP3 cell monolayer (transwell). The settings on record: human, pH 7.4, MDCK II-MRP3. The procedure: as §1, §2, §3

For another data set, the target named is T3, MDCK II-MRP3 (Homo sapiens, UniProt O15438).
T3 construct: host or cells: MDCK II
T3 sequence (O15438 whole entry): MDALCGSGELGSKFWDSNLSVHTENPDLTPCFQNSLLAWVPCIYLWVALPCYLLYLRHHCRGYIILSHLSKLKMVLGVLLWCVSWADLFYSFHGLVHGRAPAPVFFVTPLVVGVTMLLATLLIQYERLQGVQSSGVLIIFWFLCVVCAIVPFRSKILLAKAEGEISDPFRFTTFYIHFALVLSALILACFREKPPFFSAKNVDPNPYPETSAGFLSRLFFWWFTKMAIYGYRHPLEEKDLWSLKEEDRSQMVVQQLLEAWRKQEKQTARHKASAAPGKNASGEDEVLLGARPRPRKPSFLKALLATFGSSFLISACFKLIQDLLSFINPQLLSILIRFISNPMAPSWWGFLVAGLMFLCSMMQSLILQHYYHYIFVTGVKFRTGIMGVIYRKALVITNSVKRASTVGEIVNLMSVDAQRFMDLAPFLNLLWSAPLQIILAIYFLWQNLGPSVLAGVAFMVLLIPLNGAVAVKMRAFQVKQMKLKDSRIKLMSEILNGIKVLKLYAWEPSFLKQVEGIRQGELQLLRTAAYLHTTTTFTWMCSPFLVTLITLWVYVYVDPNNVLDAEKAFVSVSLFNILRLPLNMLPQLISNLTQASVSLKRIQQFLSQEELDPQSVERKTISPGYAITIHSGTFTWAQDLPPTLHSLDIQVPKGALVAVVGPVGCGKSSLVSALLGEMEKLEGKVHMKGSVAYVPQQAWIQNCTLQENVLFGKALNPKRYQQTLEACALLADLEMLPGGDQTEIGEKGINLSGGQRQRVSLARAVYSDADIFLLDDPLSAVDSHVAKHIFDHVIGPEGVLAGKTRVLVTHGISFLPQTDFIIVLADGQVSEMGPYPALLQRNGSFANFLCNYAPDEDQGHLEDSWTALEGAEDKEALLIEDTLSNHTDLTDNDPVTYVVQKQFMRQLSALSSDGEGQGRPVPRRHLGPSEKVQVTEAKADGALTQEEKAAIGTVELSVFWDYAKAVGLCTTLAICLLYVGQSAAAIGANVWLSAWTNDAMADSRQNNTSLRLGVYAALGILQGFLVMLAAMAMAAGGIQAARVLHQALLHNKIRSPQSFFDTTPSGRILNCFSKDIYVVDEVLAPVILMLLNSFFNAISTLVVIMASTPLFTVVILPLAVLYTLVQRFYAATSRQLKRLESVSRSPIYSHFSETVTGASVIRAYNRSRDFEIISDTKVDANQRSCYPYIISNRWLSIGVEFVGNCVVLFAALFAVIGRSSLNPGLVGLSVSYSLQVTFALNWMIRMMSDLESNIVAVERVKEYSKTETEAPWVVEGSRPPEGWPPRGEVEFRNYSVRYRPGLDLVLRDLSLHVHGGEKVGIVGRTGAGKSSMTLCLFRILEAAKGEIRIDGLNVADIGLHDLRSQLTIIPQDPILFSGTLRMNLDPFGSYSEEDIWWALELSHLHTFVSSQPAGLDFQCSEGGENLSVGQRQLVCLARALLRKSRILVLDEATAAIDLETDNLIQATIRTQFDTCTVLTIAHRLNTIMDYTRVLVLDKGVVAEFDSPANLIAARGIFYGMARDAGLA
The data set is described as above. As to conditions: MDCK II-MRP3; high-concentration PEG400 group vs control group. The method, then:
as §1, §2, §3

[1] abbreviates: pH 7.4, MDCK II-MRP2, 100 μM BG + 0.25% PEG400.
Where [2] appears, read: pH 7.4, MDCK II-MRP2, 100 μM BG + 0.5% PEG400.
The mark [3] stands for this setting: pH 7.4, MDCK II-MRP2, 100 μM BG + 1% PEG400.
Where [4] appears, read: pH 7.4, MDCK II-MRP2, 100 μM BG alone.

T2 sequence (O15438 whole entry): as above

The Papp A→B is how fast a substance crosses the layer from the apical side. The term Papp B→A denotes how fast a substance crosses the layer from the basolateral side. In the case of `O=C(O)[C@H]1O[C@@H](Oc2cc3oc(-c4ccccc4)cc(=O)c3c(O)c2O)[C@H](O)[C@@H](O)[C@@H]1O` [BG, Baicalein-7-O-β-D-glucuronide], the Papp A→B at 120 min, 100 μM turned out to be 1.27 ± 0.02 ×10⁻⁶ cm/s at MRP2 (setting [1]); 2.51 ± 0.07 ×10⁻⁶ cm/s at MRP2 (setting [2]); 3.17 ± 0.06 ×10⁻⁶ cm/s on MRP2 (setting [3]); 1.12 ± 0.11 ×10⁻⁶ cm/s at MRP2 (setting [4]); 1.06 ± 0.16 ×10⁻⁶ cm/s at MRP3 (100 μM BG + 0.25% PEG400); 1.77 ± 0.2 ×10⁻⁶ cm/s on MRP3 (100 μM BG + 0.5% PEG400). The Papp A→B at 120 min, 100 μM at MRP3 (100 μM BG + 1% PEG400) came out at 2.65 ± 0.44 ×10⁻⁶ cm/s; on MRP3 (100 μM BG alone) it was 0.74 ± 0.1 ×10⁻⁶ cm/s. Besides, the Papp B→A at 120 min, 100 μM on MRP2 (setting [1]) was found to be 2.83 ± 0.26 ×10⁻⁶ cm/s; on MRP2 (setting [2]), 2.73 ± 0.31 ×10⁻⁶ cm/s; on MRP2 (setting [3]), 2.53 ± 0.17 ×10⁻⁶ cm/s; at MRP2 (setting [4]), 3.28 ± 0.27 ×10⁻⁶ cm/s; on MRP3 (100 μM BG + 0.25% PEG400) it was 1.04 ± 0.08 ×10⁻⁶ cm/s; at MRP3 (100 μM BG + 0.5% PEG400), 0.85 ± 0.1 ×10⁻⁶ cm/s. In addition, the Papp B→A at 120 min, 100 μM at MRP3 (100 μM BG + 1% PEG400) was determined as 0.72 ± 0.16 ×10⁻⁶ cm/s; on MRP3 (100 μM BG alone), 1.18 ± 0.08 ×10⁻⁶ cm/s. Also, the efflux ratio at 120 min, 100 μM at MRP2 (pH 7.4, MDCK II-MRP2, 100 μM BG + 0.25% PEG400, read-out: ER) stood at 2.22 ± 0.17; on MRP2 (pH 7.4, MDCK II-MRP2, 100 μM BG + 0.5% PEG400, read-out: ER) it was 1.08 ± 0.09; on MRP2 (pH 7.4, MDCK II-MRP2, 100 μM BG + 1% PEG400, read-out: ER), 0.8 ± 0.04; at MRP2 (pH 7.4, MDCK II-MRP2, 100 μM BG alone, read-out: ER), 2.45 ± 0.04. Also, at MDCK II-MRP3, the “increase in the PAPPAP-BL/PAPP BL-AP ratio” value is given as 5.97 fold.
